# Assay results: PMC4364341, “NBD delivery improves the disease phenotype of the golden retriever model of Duchenne muscular dystrophy” (Skeletal Muscle, 2014)
# How the values were obtained:
# [1] = test system: wild type and GRMD dogs; settings: dog, in vivo
# Protocol: NBD peptide (TALDWSWLQTE) fused to an Antennapedia protein transduction domain [9] was generated using an ABI 430A solid-phase peptide synthesizer (Applied Biosystems, Foster City, CA, USA) as previously described. NBD solutions (10 mg/mL) for the canine studies were prepared weekly. Needed volumes were calculated based on the current dog body weights, plus estimated weekly gain averages. Compound was weighed on a laboratory balance to the nearest 0.1 g and reconstituted in sterile water. Solution was then sterile-filtered through 0.22 μm filters into a sterile fluid administration bag and refrigerated at 4°C until use. […] Heart and respiratory rate, mucous membrane color, capillary refill time, and body temperature were monitored throughout the perfusion. […] The syringe pump was initially programed to administer the calculated volume over 10 min, but this was extended to 30 min when reactions were seen. Blood pressure was recorded prior to start of perfusion, at 5-min intervals throughout perfusion, and post-perfusion (Cardell® 9405 Multiparameter Monitor, Midmark Corporation, Versailles, OH, USA). Dogs were monitored for adverse reactions throughout the perfusion and for up to 30 min after completion.
# [2] = test system: utrn-/-;mdx double knock out (dko) mice; settings: NBD-treated dko mice; cited from earlier work
# From the text: Our ability to collectively achieve such a benefit in GRMD dogs, as well as in mdx diaphragm, [9, 13] and dko hearts, supports the pre-clinical efficacy of NBD. Due to interspecies differences among mice, dogs, and humans, it is difficult to say e ...
# [3] = test system: mdx mice; test: Histopathology of quadriceps muscles of NBD-treated mdx mice; type: in vivo, mouse; settings: 4 weeks, Quad muscles
# Protocol: Mdx mice (C57BL/10ScSn-DMD^mdx/J) were purchased from The Jackson Laboratory and housed in the animal facility (University Laboratory Animal Resources, ULAR) at The Ohio State University under conventional conditions with constant temperature and humidity, and fed with standard diet. Treatment of mice was performed between 5 and 7 weeks of age as earlier described, and in accordance with the guidelines of the Institutional Animal Care and Use Committee at The Ohio State University. Efficacy of NBD was assessed comparing four groups (n = 5 each) of mdx mice treated either with vehicle or 3, 2, or 1 × per week with NBD by intraperitoneal (IP) delivery. Two separate groups (n = 10) were dosed subcutaneously (SQ) with vehicle or NBD, and finally two groups (n = 5) were treated with vehicle or NBD by intravenous (IV) delivery. Vascular access ports (VAP) were placed subcutaneously over the dorsal torso and a catheter was surgically inserted into the jugular vein. The catheter was kept clear by a pre- and post-wash with heparin.
# For mice muscles, histopathological assessment was performed as earlier described. For canine samples, CS, lateral gastrocnemius, vastus lateralis, and diaphragm muscles were assessed at the end of the 4-month treatment period when dogs were necropsied. Muscle samples were snap frozen in isopentane cooled in liquid nitrogen, and stored at -80°C. A total of 16 dogs (3 wild type, 2 wild type + NBD, 5 untreated GRMD, and 6 GRMD + NBD) were assessed. […] For each stain, quantitation was performed on three 10 μm sections of each muscle. To determine the degree of inflammation, cells that stained with a canine specific macrophage PM2K antibody were quantitated. Muscle damage was assessed by scoring for IgG-positive myofibers using immunofluorescence, and necrotic foci by hematoxylin and eosin (H&E) staining. Centrally located nuclei (CLN) were quantified on H&E sections to determine the degree of regeneration. Staining was quantitated on an Olympus BX51 microscope with Microsuite Five software (Olympus Soft Imaging Solutions GmbH, Center Valley, PA, USA). […]
# [4] = test system: GRMD dogs; test: Histopathologic assessment of skeletal muscles, GRMD dogs; type: in vivo, dog
# Protocol: For mice muscles, histopathological assessment was performed as earlier described. For canine samples, CS, lateral gastrocnemius, vastus lateralis, and diaphragm muscles were assessed at the end of the 4-month treatment period when dogs were necropsied. Muscle samples were snap frozen in isopentane cooled in liquid nitrogen, and stored at -80°C. A total of 16 dogs (3 wild type, 2 wild type + NBD, 5 untreated GRMD, and 6 GRMD + NBD) were assessed. Serial frozen sections (n = 10 per dog) from each muscle were processed. For each stain, quantitation was performed on three 10 μm sections of each muscle. To determine the degree of inflammation, cells that stained with a canine specific macrophage PM2K antibody were quantitated. Muscle damage was assessed by scoring for IgG-positive myofibers using immunofluorescence, and necrotic foci by hematoxylin and eosin (H&E) staining. Centrally located nuclei (CLN) were quantified on H&E sections to determine the degree of regeneration. Staining was quantitated on an Olympus BX51 microscope with Microsuite Five software (Olympus Soft Imaging Solutions GmbH, Center Valley, PA, USA). A composite score for all four muscles, reflecting muscle injury, inflammation, and regeneration, was determined.
# [5] = Average rescue of 4 muscles, NBD 10 mg/kg IV 3x weekly for 4 months
# [6] = Cranial sartorius, NBD 10 mg/kg IV 3x weekly for 4 months, p = 0.14
# [7] = Diaphragm, NBD 10 mg/kg IV 3x weekly for 4 months
# [8] = Lateral gastroc, NBD 10 mg/kg IV 3x weekly for 4 months
# [9] = Vastus lateralis, NBD 10 mg/kg IV 3x weekly for 4 months
sequence,measurement,setting,value
"TALDWSWLQTE [NBD, NBD peptide (…) fused to an Antennapedia protein transduction domain]",Blood pressure during administration,[1],decreased
same,Onset of infusion reactions (time of treatment),"[1]; iv, 10 mg/kg",approximately 1 month
same,"Functional response, dko heart",[2],improved back to wild type
same,Histopathologic improvement with reduced treatment frequencies,"[3]; IP 10 mg/kg, 2x or 1x per week compared to 3x per week, n = 5 per group",less pronounced
same,Histopathologic improvement after intravenous dosing,"[3]; IV via VAP, 10 mg/kg 3x weekly, n = 5 per group",significant histopathologic improvement
same,Reduction of muscle inflammation and necrosis after subcutaneous dosing,"[3]; SQ 10 mg/kg 3x weekly, n = 10 per group",no such improvements were observed
same,"Inflammation (PM2K-positive macrophages), percent difference GRMD vs GRMD + NBD",[4]; [5],35.5%
same,"Necrosis (IgG-positive myofibers), percent difference GRMD vs GRMD + NBD",[4]; [5],30.3%
same,"Regeneration (centrally located nuclei), percent difference GRMD vs GRMD + NBD",[4]; [5],40.8%
same,"Inflammation (PM2K-positive macrophages), percent difference GRMD vs GRMD + NBD","[4]; Cranial sartorius, NBD 10 mg/kg IV 3x weekly for 4 months, p < 0.05",34%
same,"Necrosis (Foci, H&E), percent difference GRMD vs GRMD + NBD",[4]; [6],25%
same,"Necrosis (IgG-positive myofibers), percent difference GRMD vs GRMD + NBD",[4]; [6],22%
same,"Regeneration (centrally located nuclei), percent difference GRMD vs GRMD + NBD","[4]; Cranial sartorius, NBD 10 mg/kg IV 3x weekly for 4 months, reduced, p < 0.05",43%
same,"Inflammation (PM2K-positive macrophages), percent difference GRMD vs GRMD + NBD",[4]; [7],37%
same,"Necrosis (Foci, H&E), percent difference GRMD vs GRMD + NBD",[4]; [7],37%
same,"Necrosis (IgG-positive myofibers), percent difference GRMD vs GRMD + NBD",[4]; [7],32%
same,"Regeneration (centrally located nuclei), percent difference GRMD vs GRMD + NBD",[4]; [7],41%
same,Final Histological Score of Improvement (composite of all four muscles),"[4]; GRMD + NBD vs untreated GRMD, NBD 10 mg/kg IV 3x weekly for 4 months",35.5%
same,Reduction of CS myofiber size vs untreated GRMD muscles,"[4]; GRMD + NBD, n = 6, 1800 fibers, P <0.05",46%
same,"Inflammation (PM2K-positive macrophages), percent difference GRMD vs GRMD + NBD",[4]; [8],40%
same,"Necrosis (Foci, H&E), percent difference GRMD vs GRMD + NBD",[4]; [8],34%
same,"Regeneration (centrally located nuclei), percent difference GRMD vs GRMD + NBD",[4]; [8],35%
same,"Inflammation (PM2K-positive macrophages), percent difference GRMD vs GRMD + NBD",[4]; [9],31%
same,"Necrosis (IgG-positive myofibers), percent difference GRMD vs GRMD + NBD",[4]; [9],32%
same,"Regeneration (centrally located nuclei), percent difference GRMD vs GRMD + NBD",[4]; [9],44%
